Laboratory results reported in US4902690A, “Pest controlling compositions” (The General Hospital Corporation, priority 1988, dated 1990).

What was measured:
[1] = system: tobacco hornworms (Manducca sexta); test: In vivo leaf test (feeding on sprayed tomato leaves)
[2] = system: PDE in tissue homogenate from tobacco hornworm nerve cord; test: Cyclic AMP analogue remaining after incubation with nerve cord homogenate; assay type: in vitro ADME, tobacco hornworm (Manducca sexta); details: IBMX 0.1 mM; 4 hours in vitro; FIG. 20
Protocol: It has been previously shown, above, that PDE inhibition can increase the concentration of cyclic AMP in insect tissue. […] In order to do this, a fixed amount of butyl-benzylthio cyclic AMP was incubated in vitro for 4 hours in the presence of a tissue homogenate from tobacco hornworm nerve cord. In some tubes, IBMX (0.1 mM) was added to inhibit PDE. After the incubation, the amount of butyl-benzylthio cyclic AMP remaining was measured by protein binding assay (Brown et al., supra), using a standard curve based upon butyl-benzylthio cyclic AMP.

[3] = system: phosphodiesterase enzyme of hornworm nerve cord; test: PDE inhibitory activity, hornworm nerve tissue; assay type: biochemical, tobacco hornworm (Manducca sexta); details: FIG. 8
Excerpt: (§1) The ability of any compound (A) to inhibit phosphodiesterase (PDE) activity in broken cell preparations of firefly lantern or in pest tissues can be determined either (1) by measuring the decrease in rate of hydrolysis of an added amount of cyclic AMP by PDE (see Methods Section of Nathanson et al., Mol. Pharmacol. 12:390-398 (1975)), or (2) by measuring the rate of accumulation of one of the breakdown products of cyclic AMP, such as 5'-AMP or adenosine (see method of Filburn et al., Anal. Biochem. 52:505-516 (1973)). Both of these are herein incorporated by reference.
(§2) In this assay (modified slightly from Filburn and Karn (Analyt. Biochem. 52: 505-516 (1973)), the rate of hydrolysis of labeled cyclic AMP to 5'-AMP by PDE is measured by converting the breakdown product (5'-AMP) to adenosine, which can be separated and measured by alumina chromatography. Specifically, tissue from either the firefly lantern or pest is homogenized (10-20 mg/ml) in 6 mM Tris-maleate buffer, pH 7.4. The hydrolysis reaction is run in test tubes containing (in 100 microliters): 80 mM Tris maleate, pH 7.4; 6 mM MgSO4; 10 pmoles tritiated cyclic AMP (2×10^4 to 2×10^5 cpm, depending upon the activity of the enzyme); 20 microliters of tissue homogenate; and various concentrations of the compound to be tested. In those cases in which the compound is insoluble in aqueous solution at pH 7.4, pH can be varied between pH 6.5 and 9.0 for optimization of solubility. In addition, the test compound can be initially solubilized in either 100% methanol or DMSO and diluted to a final concentration of 10% methanol or DMSO in the assay (in which case solvent controls are run in parallel).
The reaction is started by the addition of homogenate, run for 4 min at 37° C., and terminated by boiling for 90 sec. […] The void volume is discarded and the column is then eluted with 2 ml of 0.1N ammonium acetate, pH 4.0, the eluent collected and counted by liquid scintillation spectrometry. […]

[4] = Level of PDE inhibitor compound in insects in vivo; set-up: species or system tobacco hornworms; details: feeding 72 hours on tomato leaves treated with a 1% spray of theophylline; read-out: internal concentration within the insects
Protocol: To determine this, tobacco hornworms were allowed to feed on tomato leaves treated with a 1% spray of theophylline. This concentration was chosen since it is an amount which, by itself, inhibits feeding in the tobacco hornworm (see FIG. 13). After 72 hours, worms (alive or dead) were removed, quickly rinsed of any compound adhering to their outside cuticle, and then homogenized. The homogenate was centrifuged at 2000×g for 5 minutes and the supernatant was assayed for theophylline concentration by a standard immunoenzymatic procedure (Emit-aad® Theophylline Assay, Syva Company, Palo Alto, Calif.). By this procedure, the internal concentration within the insects was determined to be 4.0 mM. From FIGS. 6,7 or 8 it will be seen that this concentration of theophylline is sufficient to cause at least 70% inhibition of PDE enzyme activity in vitro. The correspondence between in vitro and in vivo results is remarkably close and serves to further support the invention.

[5] = system: Firefly phosphodiesterase enzyme; test: PDE inhibitory activity, firefly lantern; assay type: biochemical, firefly (Photinus pyralis)
Excerpt: as §1
Generally, any compound capable of maximally inhibiting PDE activity by at least 50% (Vmax -inhibition) and preferably by at least 80% is preferred. Also, in terms of the concentration of the compound required for such inhibition, this can be quantitated by determining the IC 50-inhibition, i.e., the concentration of the compound required to cause 50% of the maximal inhibitioncaused by the compound at any concentration.
as §2
The reaction is started by the addition of homogenate, run for 4 min at 37° C., and terminated by boiling for 90 sec. The 5'AMP formed is then converted to adenosine by the addition of 20 microliters of an aqueous solution of 0.5 Units/ml of 5'-nucleotidase (Sigma, Grade IV), vortexed, and incubated for 30 minutes at 37° C. The second reaction is stopped by addition of 0.4 ml of 0.1N ammonium acetate, pH 4.0. The entire sample is then applied to a 0.5×8 cm column containing neutral alumina prewashed with 20 ml of 0.1N ammonium acetate, pH 4.0. The void volume is discarded and the column is then eluted with 2 ml of 0.1N ammonium acetate, pH 4.0, the eluent collected and counted by liquid scintillation spectrometry. Activity is cpms above that due to a blank which was initially incubated for 0 seconds in the first reaction.

Row | amount of butyl-benzylthio cyclic AMP present after 4 hours, effect of addition of IBMX [2] | Compound | antifeeding activity in the absence of IBMX ([1]; concentration of 1%, FIGS. 18, 19) | % Leaf Remaining (increase over control) ([1]; 1% Theophylline alone) | pattern of PDE inhibition [3] | concentration [4] | phosphodiesterase inhibition ([5]; FIG. 6) | inhibition of PDE enzyme activity in vitro ([5]; theophylline 4.0 mM, read from FIGS. 6,7 or 8 (firefly or hornworm))
1 | more than doubled | CCCCNc1ncnc2c1nc(SCc1ccccc1)n2[C@@H]1O[C@@H]2COP(=O)(O)O[C@H]2[C@H]1O [n-butylaminobenzylthio cyclic AMP, 6-n-butylamino-8-benzylthio-cyclic AMP] | some antifeeding activity | – | – | – | – | –
2 | – | Cn1c(=O)c2[nH]cnc2n(C)c1=O [theophylline] | – | 11% | quite similar to that in the firefly light organ | 4000 µM | active as phosphodiesterase inhibitors | at least 70%
